Measurements reported in ChEMBL document CHEMBL1146038, “Hassallidin B--second antifungal member of the Hassallidin family” (2006).
In brackets after ≈: the same amount, converted by molar mass. Positions of bridges follow the written chain, without caps; N, C: chain ends. Non-standard residues stand in square brackets, D forms with d. Residues, ends and D or L forms follow the SMILES beside them. *: point of attachment. X3 = CCCCCCCCCCCC(O[C@@H]1O[C@@H](C)[C@H](O)[C@@H](O)[C@H]1O)C(O)C(=O)*; X2 = OC[C@H]1O[C@@H](*)[C@@H](O)[C@@H](O)[C@@H]1O; NMeT = CN[C@H](C(=O)O)[C@@H](C)O; X1 = CCCCCCCCCCCC(O)C(O)C(=O)*; Dhb = C/C=C(\N)C(=O)O

Legend:
Type in all cases: functional
[1] = system: Pichia kudriavzevii; test: Antifungal activity against Candida krusei ATCC 90878
[2] = system: Cryptococcus neoformans; test: Antifungal activity against Cryptococcus neoformans DSM 6973
[3] = system: Cryptococcus neoformans; test: Antifungal activity against Cryptococcus neoformans ATCC 34543
[4] = system: Nakaseomyces glabratus; test: Antifungal activity against Candida glabrata DSM 11950
[5] = system: Candida parapsilosis; test: Antifungal activity against Candida parapsilosis ATCC 22019; conditions: Lodderomyces parapsilosis
[6] = system: Pichia kudriavzevii; test: Antifungal activity against Candida krusei ATCC 6258
[7] = system: Candida tropicalis; test: Antifungal activity against Candida tropicalis ATCC 90874
[8] = system: Cryptococcus neoformans; test: Antifungal activity against Cryptococcus neoformans ATCC 90112
[9] = system: Candida tropicalis; test: Antifungal activity against Candida tropicalis ATCC 750
[10] = system: Candida albicans; test: Antifungal activity against Candida albicans ATCC 24433
[11] = system: Candida albicans; test: Antifungal activity against Candida albicans ATCC 90028
[12] = system: Candida albicans; test: Antifungal activity against Candida albicans SC 5314
[13] = system: Cryptococcus neoformans; test: Antifungal activity against Cryptococcus neoformans CBS 6955
[14] = system: Nakaseomyces glabratus; test: Antifungal activity against Candida glabrata ATCC 90030
[15] = system: Candida albicans; test: Antifungal activity against Candida albicans ATCC 44374
[16] = system: Candida parapsilosis; test: Antifungal activity against Candida parapsilosis ATCC 90018; conditions: Lodderomyces parapsilosis

| MIC [1] [µg/mL] | MIC [2] [µg/mL] | MIC [3] [µg/mL] | MIC [4] [µg/mL] | MIC [5] [µg/mL] | MIC [6] [µg/mL] | MIC [7] [µg/mL] | MIC [8] [µg/mL] | MIC [9] [µg/mL] | MIC [10] [µg/mL] | SMILES | MFC [1] [µg/mL] | MFC [2] [µg/mL] | MFC [3] [µg/mL] | MFC [4] [µg/mL] | MFC [5] [µg/mL] | MFC [6] [µg/mL] | MFC [7] [µg/mL] | MFC [8] [µg/mL] | MFC [9] [µg/mL] | MFC [10] [µg/mL] | also measured |
| --- | --- | --- | --- | --- | --- | --- | --- | --- | --- | --- | --- | --- | --- | --- | --- | --- | --- | --- | --- | --- | --- |
| 16 (≈ 10.5 µM) | 8 (≈ 5.23 µM) | 8 (≈ 5.23 µM) | 16 (≈ 10.5 µM) | 8 (≈ 5.23 µM) | 8 (≈ 5.23 µM) | 8 (≈ 5.23 µM) | 8 (≈ 5.23 µM) | 16 (≈ 10.5 µM) | 16 (≈ 10.5 µM) | C/C=C1\NC(=O)[C@H](Cc2ccc(O)cc2)NC(=O)[C@H]([C@@H](C)O)NC(=O)[C@@H](NC(=O)[C@@H](NC(=O)C(O)C(CCCCCCCCCCC)O[C@@H]2O[C@@H](C)[C@H](O)[C@@H](O)[C@H]2O)[C@@H](C)O)[C@@H](C)OC(=O)[C@H](CCC(N)=O)NC(=O)[C@H]([C@@H](C)O[C@@H]2O[C@H](CO)[C@@H](O)[C@H](O)[C@@H]2O)N(C)C(=O)CNC(=O)[C@H](CCC(N)=O)NC1=O (some centres undefined) (X3-TTTY[Dhb]QG[NMeT](X2)Q; ester 2-C) | 16 (≈ 10.5 µM) | 8 (≈ 5.23 µM) | 8 (≈ 5.23 µM) | 16 (≈ 10.5 µM) | 16 (≈ 10.5 µM) | 16 (≈ 10.5 µM) | 16 (≈ 10.5 µM) | 8 (≈ 5.23 µM) | 16 (≈ 10.5 µM) | 16 (≈ 10.5 µM) | MFC [11]: 8 µg/mL (≈ 5.23 µM); MIC [11]: 8 µg/mL (≈ 5.23 µM); MFC [12]: 8 µg/mL (≈ 5.23 µM); MIC [12]: 8 µg/mL (≈ 5.23 µM); MFC [13]: 8 µg/mL (≈ 5.23 µM); MIC [13]: 8 µg/mL (≈ 5.23 µM); MFC [14]: 16 µg/mL (≈ 10.5 µM); MIC [14]: 16 µg/mL (≈ 10.5 µM); MFC [15]: 16 µg/mL (≈ 10.5 µM); MIC [15]: 8 µg/mL (≈ 5.23 µM); MFC [16]: > 16 µg/mL; MIC [16]: 16 µg/mL (≈ 10.5 µM) |
| 8 (≈ 5.79 µM) | 4 (≈ 2.89 µM) | 4 (≈ 2.89 µM) | 8 (≈ 5.79 µM) | 8 (≈ 5.79 µM) | 8 (≈ 5.79 µM) | 8 (≈ 5.79 µM) | 4 (≈ 2.89 µM) | 4 (≈ 2.89 µM) | 4 (≈ 2.89 µM) | C/C=C1\NC(=O)[C@H](Cc2ccc(O)cc2)NC(=O)[C@H]([C@@H](C)O)NC(=O)[C@@H](NC(=O)[C@@H](NC(=O)C(O)C(O)CCCCCCCCCCC)[C@@H](C)O)[C@@H](C)OC(=O)[C@H](CCC(N)=O)NC(=O)[C@H]([C@@H](C)O[C@@H]2O[C@H](CO)[C@@H](O)[C@H](O)[C@@H]2O)N(C)C(=O)CNC(=O)[C@H](CCC(N)=O)NC1=O (some centres undefined) [HASSALLIDIN A] (X1-TTTY[Dhb]QG[NMeT](X2)Q; ester 2-C) | 8 (≈ 5.79 µM) | 8 (≈ 5.79 µM) | 8 (≈ 5.79 µM) | 8 (≈ 5.79 µM) | 8 (≈ 5.79 µM) | 8 (≈ 5.79 µM) | 8 (≈ 5.79 µM) | 8 (≈ 5.79 µM) | 4 (≈ 2.89 µM) | 4 (≈ 2.89 µM) | MFC [11]: 4 µg/mL (≈ 2.89 µM); MIC [11]: 4 µg/mL (≈ 2.89 µM); MFC [12]: 8 µg/mL (≈ 5.79 µM); MIC [12]: 4 µg/mL (≈ 2.89 µM); MFC [13]: 8 µg/mL (≈ 5.79 µM); MIC [13]: 4 µg/mL (≈ 2.89 µM); MFC [14]: 8 µg/mL (≈ 5.79 µM); MIC [14]: 8 µg/mL (≈ 5.79 µM); MFC [15]: 4 µg/mL (≈ 2.89 µM); MIC [15]: 4 µg/mL (≈ 2.89 µM); MFC [16]: 16 µg/mL (≈ 11.6 µM); MIC [16]: 8 µg/mL (≈ 5.79 µM) |
